This is an account of results in patent publication US6869949B2, “Polysubstituted imidazopyridines as gastric secretion inhibitors” (Altana Pharma AG, priority 2000, dated 2005).

SMILES strings stand for the structures.

For the first data set, the system named is acid secretion stimulated by pentagastrin of the perfused rat stomach. Kind of data set: Testing of the secretion-inhibiting action on the perfused rat stomach. Particulars: dose 3 μmol/kg i.d., anesthetized CD rats, perfused stomach in vivo. As to the method: The abdomen of anesthetized rats (CD rats, female, 200-250 g; 1.5 g/kg i.m. urethane) was opened after tracheotomy by means of a median upper abdominal incision and a PVC catheter was fixed transorally in the esophagus and a further catheter via the pylorus such that the ends of the tubing just projected into the gastric lumen. The catheter leading from the pylorus led outwards through a side opening in the right abdominal wall.
After thorough rinsing (about 50-100 ml), warm physiological NaCl solution at 37° C. was continuously passed through the stomach (0.5 ml/min, pH 6.8-6.9; Braun-Unita I). The pH (pH meter 632, glass electrode EA 147; φ=5 mm, Metrohm), and, by titration with a freshly prepared 0.01 N NaOH solution to pH 7 (Dosimat 665 Metrohm), the secreted HCl were determined in the effluent in each case collected at an interval of 15 minutes.
The gastric secretion was stimulated by continuous perfusion of 1 μg/kg (=1.65 ml/h) of i.v. pentagastrin (left femoral vein) about 30 min after the end of the operation (i.e. alter determination of 2 preliminary fractions). The substances to be tested were administered intraduodenally in 2,5 ml/kg of liquid volume 60 min after the start of the pentagastrin continuous infusion.
The body temperature of the animals was kept at a constant 37.8-38° C. by infrared irradiation and heat pads (automatic, stepless control by means of rectal temperature sensors).
Regarding `COCCOCCO[C@@H]1c2ccn3c(C)c(C)nc3c2N[C@H](c2ccccc2)[C@H]1O` [Example 8, (7R,8R,9R)-8-Hydroxy-7-[2-(2-methoxyethoxy)ethoxy]-2,3-dimethyl-9-phenyl-7,8,9,10-tetrahydroimidazo[1,2-h][1,7]naphthyridine], the “Inhibition of acid secretion (%)” value is 100%.

Consider `COCCOCCO[C@H]1c2ccn3c(C)c(C)nc3c2N[C@H](c2ccccc2)[C@H]1O` [Example 9, (7S,8R,9R)-8-Hydroxy-7-[2-(2-methoxyethoxy)ethoxy]2,3-dimethyl-9-phenyl-7,8,9,10-tetrahydroimidazo[1,2-h][1,7]naphthyridine], for which the “Inhibition of acid secretion (%)” value worked out at 100%.

Consider `Cc1cn2ccc3c(c2n1)N[C@H](c1ccccc1)[C@@H](O)[C@@H]3O` [Example 11, (7R,8R,9R)-7,8-Dihydroxy-2-methyl-9-phenyl-7,8,9,10-tetrahydroimidazo[1,2-h][1,7]naphthyridine], for which the “Inhibition of acid secretion (%)” value is listed as 100%.

As for `COCCO[C@H]1c2ccn3cc(C)nc3c2N[C@H](c2ccccc2)[C@H]1O` [Example 12a, (7S,8R,9R)-8-hydroxy-2-methyl-7-(2-methoxyethoxy)-9-phenyl-7,8,9,10-tetrahydroimidazo[1,2-h][1,7]naphthyridine], the “Inhibition of acid secretion (%)” value is 100%.

On to `COCCO[C@@H]1c2ccn3cc(C)nc3c2N[C@H](c2ccccc2)[C@H]1O` [Example 12b, (7R,8R,9R)-8-hydroxy-2-methyl-7-(2-methoxyethoxy)-9-phenyl-7,8,9,10-tetrahydroimidazo[1,2-h][1,7]-naphthyridine], for which the “Inhibition of acid secretion (%)” value is reported as 100%.

With `COCCO[C@@H]1c2ccn3c(Br)c(C)nc3c2N[C@H](c2ccccc2)[C@H]1O` [Example 13, (7R,8R,9R)-3-Bromo-8-hydroxy-7-(2-methoxyethoxy)-2-methyl-9-phenyl-7,8,9,10-tetrahydroimidazo[1,2-h][1,7]naphthyridine], the “Inhibition of acid secretion (%)” value is on record as 100%.

On to `COCCO[C@@H]1c2ccn3c(Cl)c(C)nc3c2N[C@H](c2ccccc2)[C@H]1O` [Example 14, (7R,8R,9R)-3-Chloro-8-hydroxy-7-(2-methoxyethoxy)-2-methyl-9-phenyl-7,8,9,10-tetrahydroimidazo[1,2-h][1,7]naphthyridine], for which the “Inhibition of acid secretion (%)” value came out at 100%.

In the case of `COCCO[C@@H]1c2ccn3c(Cl)c(C)nc3c2O[C@H](c2ccccc2)[C@@H]1O` [Example 16, (7R,8R,9R)-3-Chloro-8-hydroxy-7-(2-methoxyethoxy)-2-methyl-9-phenyl-7H-8,9-dihydro-pyrano[2,3-c]imidazo[1,2-a]pyridine], the “Inhibition of acid secretion (%)” value was 100%.

As to `COCCO[C@@H]1c2ccn3cc(C)nc3c2O[C@H](c2ccccc2)[C@@H]1O` [Example 17, (7R,8R,9R)-8-Hydroxy-7-(2-methoxyethoxy)-2-methyl-9-phenyl-7H-8,9-dihydro-pyrano[2,3-c]imidazo[1,2-a]pyridine], the “Inhibition of acid secretion (%)” value worked out at 100%.

For `Cc1cn2ccc3c(c2n1)O[C@H](c1ccccc1)[C@H](O)[C@@H]3O` [Example 18, (7R,8R,9R)-7,8-Dihydroxy-2-methyl-9-phenyl-7H-8,9-dihydropyrano[2,3-c]imidazo[1,2-a]pyridine], the “Inhibition of acid secretion (%)” value turned out to be 100%.

As for `CO[C@@H]1c2ccn3cc(C)nc3c2N[C@H](c2ccccc2)[C@H]1O` [Example 20, (7R,8R,9R)-8-Hydroxy-7-methoxy-2-methyl-9-phenyl-7,8,9,10-tetrahydroimidazo[1,2-h][1,7]naphthyridine], the “Inhibition of acid secretion (%)” value amounted to 100%.

For the molecule `CO[C@H]1c2ccn3cc(C)nc3c2N[C@H](c2ccccc2)[C@H]1O` [Example 21, (7S,8R,9R)-8-Hydroxy-7-methoxy-2-methyl-9-phenyl-7,8,9,10-tetrahydroimidazo[1,2-h][1,7]naphthyridine], the “Inhibition of acid secretion (%)” value is reported as 100%.

Regarding `COCCO[C@@H]1c2ccn3c(CO)c(C)nc3c2N[C@H](c2ccccc2)[C@H]1O` [Example 22, (7R,8R,9R)-3-Hydroxymethyl-8-hydroxy-7-(2-methoxyethoxy)-2-methyl-9-phenyl-7,8,9,10-tetrahydroimidazo[1,2-h][1,7]naphthyridine], the “Inhibition of acid secretion (%)” value is 100%.

System in the next data set: not given
Experiment: not given
Details: not given
On to `Cc1nc2c3c(ccn2c1C)C(=O)C(O)C(c1ccsc1)N3` (centres unmarked) [Example 1, 8-Hydroxy-2,3-dimethyl-9-(3-thienyl)-7,8,9,10-tetrahydroimidazo[1,2-h][1,7]naphthyridin-7-one], for which the melting point (usually the temperature of the solid-liquid transition) was in the range of 222 to 225 °C.

For the molecule `Cc1nc2c3c(ccn2c1C)C(O)C(O)C(c1ccsc1)N3` (centres unmarked) [Example 2, 7,8-Dihydroxy-2,3-dimethyl-9-(3-thienyl)-7,8,9,10-tetrahydroimidazo[1,2-h][1,7]naphthyridine], the melting point was in the range of 134 to 138 °C.

The molecule `Cc1nc2c3c(ccn2c1C)C(=O)CC(c1ccsc1)N3` (centres unmarked) [Example 3, 2,3-Dimethyl-9-(3-thienyl)-7,8,9,10-tetrahydroimidazo[1,2-h][1,7]naphthyridin-7-one] displayed a melting point of 176 to 177 °C.

`Cc1nc2c3c(ccn2c1C)C(O)CC(c1ccsc1)N3` (centres unmarked) [Example 4, 7-Hydroxy-2,3-dimethyl-9-(3-thienyl)-7,8,9,10-tetrahydroimidazo[1,2-h][1,7]naphthyridine] had a melting point of 192 to 194 °C.

In turn, `Cc1nc2c3c(ccn2c1C)C(O)CC(c1ccoc1)N3` (centres unmarked) [Example 7, 9-(3-Furyl)-7-hydroxy-2,3-dimethyl-7,8,9,10-tetrahydroimidazo[1,2-h][1,7]naphthyridine] showed a melting point of 221 to 222 °C.

For the molecule `Cc1cn2ccc3c(c2n1)N[C@H](c1ccccc1)[C@@H](O)[C@@H]3O` [Example 11, (7R,8R,9R)-7,8-Dihydroxy-2-methyl-9-phenyl-7,8,9,10-tetrahydroimidazo[1,2-h][1,7]naphthyridine], the melting point was 119 °C (dec.).

The molecule `COCCO[C@@H]1c2ccn3c(Br)c(C)nc3c2N[C@H](c2ccccc2)[C@H]1O` [Example 13, (7R,8R,9R)-3-Bromo-8-hydroxy-7-(2-methoxyethoxy)-2-methyl-9-phenyl-7,8,9,10-tetrahydroimidazo[1,2-h][1,7]naphthyridine] came in with a melting point of 153 to 154 °C.

The molecule `COCCO[C@@H]1c2ccn3c(Cl)c(C)nc3c2N[C@H](c2ccccc2)[C@H]1O` [Example 14, (7R,8R,9R)-3-Chloro-8-hydroxy-7-(2-methoxyethoxy)-2-methyl-9-phenyl-7,8,9,10-tetrahydroimidazo[1,2-h][1,7]naphthyridine] displayed a melting point of 123 to 126 °C.

`COCCO[C@@H]1c2ccn3c(CO)c(C)nc3c2N[C@H](c2ccccc2)[C@H]1O` [Example 22, (7R,8R,9R)-3-Hydroxymethyl-8-hydroxy-7-(2-methoxyethoxy)-2-methyl-9-phenyl-7,8,9,10-tetrahydroimidazo[1,2-h][1,7]naphthyridine] registered a melting point of 180 to 183 °C.

`COCCO[C@@H]1c2ccn3c(-c4ccccc4)c(C)nc3c2N[C@H](c2ccccc2)[C@H]1O` [Example 25, (7R,8R,9R)-3,9-Diphenyl-8-hydroxy-7-(2-methoxyethoxy)-2-methyl-7,8,9,10-tetrahydroimidazo[1,2-h][1,7]naphthyridine] registered a melting point of 190 to 192 °C.

For `COCc1nc2c3c(ccn2c1C)C(=O)[C@H](O)[C@@H](c1ccccc1)N3` [Example 26, (8R,9R)-8-Hydroxy-2-methoxymethyl-3-methyl-9-phenyl-7,8,9,10-tetrahydroimidazo[1,2-h][1,7]naphthyridin-7-one], the melting point fell in the range of 168 to 173 °C.

For the molecule `COCc1nc2c3c(ccn2c1C)[C@@H](O)[C@H](O)[C@@H](c1ccccc1)N3` [Example 27, (7R,8R,9R)-7,8-Dihydroxy-2-methoxymethyl-3-methyl-9-phenyl-7,8,9,10-tetrahydroimidazo[1,2-h][1,7]naphthyridine], the melting point fell in the range of 102 to 104 °C.

The molecule `COCCO[C@H]1c2ccn3c(C)c(COC)nc3c2N[C@H](c2ccccc2)[C@H]1O` [Example 28a, (7S,8R,9R)-8-hydroxy-7-(2-methoxyethoxy)-2-methoxymethyl-3-methyl-9-phenyl-7,8,9,10-tetrahydroimidazo[1,2-h][1,7]naphthyridine] registered a melting point of 63 to 65 °C.
